Experimental data from ChEMBL document CHEMBL1201862, “PubChem BioAssay data set” (2004).
Activity calls are given as the source filed them.

Legend:
Assay type in all cases: functional
[1] = target: Calcium/calmodulin-dependent protein kinase type II subunit beta (Homo sapiens, UniProt Q13554)
[2] = target: Receptor-type tyrosine-protein kinase FLT3 (Homo sapiens, UniProt P36888);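 note: FLT3 was tested as one member of a kinome-wide kinase panel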
[3] = target: Calcium/calmodulin-dependent protein kinase type II subunit delta (Homo sapiens, UniProt Q13557)
Sequence of Calcium/calmodulin-dependent protein kinase type II subunit delta (Q13557 whole entry): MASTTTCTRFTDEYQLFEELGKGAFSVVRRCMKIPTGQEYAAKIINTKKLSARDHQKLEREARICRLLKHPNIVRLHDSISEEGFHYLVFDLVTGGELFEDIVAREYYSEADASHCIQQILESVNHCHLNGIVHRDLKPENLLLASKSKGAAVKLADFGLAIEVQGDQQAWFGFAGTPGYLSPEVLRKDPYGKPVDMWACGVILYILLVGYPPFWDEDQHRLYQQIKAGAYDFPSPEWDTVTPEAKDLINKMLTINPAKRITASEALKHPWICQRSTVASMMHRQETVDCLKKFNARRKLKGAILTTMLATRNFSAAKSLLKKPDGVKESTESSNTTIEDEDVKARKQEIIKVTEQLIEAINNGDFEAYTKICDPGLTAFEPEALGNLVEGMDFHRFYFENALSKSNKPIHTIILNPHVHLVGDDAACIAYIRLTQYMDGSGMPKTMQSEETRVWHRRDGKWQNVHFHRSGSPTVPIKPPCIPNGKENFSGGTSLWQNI

[4] = target: Protein kinase C delta type (Homo sapiens, UniProt Q05655)
Sequence of Protein kinase C delta type (Q05655 whole entry): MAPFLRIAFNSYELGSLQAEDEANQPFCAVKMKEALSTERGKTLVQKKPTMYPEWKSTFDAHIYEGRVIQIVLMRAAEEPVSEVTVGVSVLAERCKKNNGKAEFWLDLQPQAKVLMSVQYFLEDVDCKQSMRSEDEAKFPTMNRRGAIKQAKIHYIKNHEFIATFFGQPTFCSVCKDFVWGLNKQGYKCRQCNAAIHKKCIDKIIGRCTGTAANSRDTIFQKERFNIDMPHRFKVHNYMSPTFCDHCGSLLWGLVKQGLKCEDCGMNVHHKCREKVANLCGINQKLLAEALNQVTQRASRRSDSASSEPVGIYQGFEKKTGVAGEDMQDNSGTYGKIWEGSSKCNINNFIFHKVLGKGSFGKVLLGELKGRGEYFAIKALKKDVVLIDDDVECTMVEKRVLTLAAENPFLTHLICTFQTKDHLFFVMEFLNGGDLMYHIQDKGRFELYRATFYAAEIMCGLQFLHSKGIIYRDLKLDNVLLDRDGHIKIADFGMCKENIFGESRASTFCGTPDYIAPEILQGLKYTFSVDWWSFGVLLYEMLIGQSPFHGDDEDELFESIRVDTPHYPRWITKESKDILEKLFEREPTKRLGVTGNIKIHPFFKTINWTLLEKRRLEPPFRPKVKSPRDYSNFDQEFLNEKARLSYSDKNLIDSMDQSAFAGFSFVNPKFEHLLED

[5] = target: Calcium/calmodulin-dependent protein kinase type II subunit gamma (Homo sapiens, UniProt Q13555)
Melanocortin receptor 4 = Melanocortin receptor 4 (Homo sapiens, UniProt P32245); experiment: MC4R antagonist potency on cAMP, dose response, cell-based, TR-FRET, biased antagonists (AID 602298);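 note: antagonist potency against agonist-stimulated cAMP production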
[6] = nonselective inhibitors of cellular cAMP signaling, dose response, counter-screen for MC4R biased antagonist project, cell-based, TR-FRET cAMP detection (AID 602305);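 note: U2OS cells stimulated with forskolin near its EC80 as the cAMP inducer; potency is for inhibition of forskolin-stimulated cAMP signaling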
[7] = target: Vascular endothelial growth factor receptor 2 (Homo sapiens, UniProt P35968)
Aurora kinase B = Aurora kinase B (Homo sapiens, UniProt Q96GD4)
[8] = target: Cyclin-dependent kinase 19 (Homo sapiens, UniProt Q9BWU1); experiment: Navigating the Kinome. Panel member name: CDC2L6
Aurora kinase A = Aurora kinase A (Homo sapiens, UniProt O14965);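 note: value from the Navigating the Kinome kinase panel profiling, panel entry STK6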
[9] = target: T1, High affinity choline transporter 1 (Homo sapiens, UniProt Q9GZV3); experiment: CHT inhibitors, dose response, cell-based, 5-point CRC, membrane potential dye (AID 504840)
T1 sequence (Q9GZV3 whole entry): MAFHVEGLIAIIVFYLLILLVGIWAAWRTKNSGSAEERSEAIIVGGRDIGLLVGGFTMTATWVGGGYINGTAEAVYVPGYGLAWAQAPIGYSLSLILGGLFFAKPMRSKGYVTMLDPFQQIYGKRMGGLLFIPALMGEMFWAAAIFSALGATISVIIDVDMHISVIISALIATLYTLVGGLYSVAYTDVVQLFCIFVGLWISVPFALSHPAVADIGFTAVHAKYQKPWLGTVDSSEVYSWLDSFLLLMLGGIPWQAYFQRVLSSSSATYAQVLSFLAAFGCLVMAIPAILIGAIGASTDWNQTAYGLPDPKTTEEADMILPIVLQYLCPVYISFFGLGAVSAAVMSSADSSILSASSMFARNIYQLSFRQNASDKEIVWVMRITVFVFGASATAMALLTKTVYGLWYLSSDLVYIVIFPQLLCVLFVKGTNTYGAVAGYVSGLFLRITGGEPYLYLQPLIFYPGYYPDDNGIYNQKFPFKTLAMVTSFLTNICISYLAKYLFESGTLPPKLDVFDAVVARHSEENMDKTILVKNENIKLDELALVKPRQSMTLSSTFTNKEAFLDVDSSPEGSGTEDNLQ

[10] = Luminescence Cell-Based Dose Confirmation HTS to Identify Inhibitors of Platelet Dense Granule Release. [Related pubchem assays: 1663 (Primary HTS), 1678 (Summary of Project)]
[11] = target: T1, High affinity choline transporter 1; experiment: CHT inhibitors, dose response, cell-based, 10-point CRC, membrane potential dye (AID 588401);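 note: membrane potential dye fluorescence of choline-evoked depolarization via CHT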
[12] = target: Dual specificity protein kinase CLK2 (Homo sapiens, UniProt P49760)
Sequence of Dual specificity protein kinase CLK2 (P49760 whole entry): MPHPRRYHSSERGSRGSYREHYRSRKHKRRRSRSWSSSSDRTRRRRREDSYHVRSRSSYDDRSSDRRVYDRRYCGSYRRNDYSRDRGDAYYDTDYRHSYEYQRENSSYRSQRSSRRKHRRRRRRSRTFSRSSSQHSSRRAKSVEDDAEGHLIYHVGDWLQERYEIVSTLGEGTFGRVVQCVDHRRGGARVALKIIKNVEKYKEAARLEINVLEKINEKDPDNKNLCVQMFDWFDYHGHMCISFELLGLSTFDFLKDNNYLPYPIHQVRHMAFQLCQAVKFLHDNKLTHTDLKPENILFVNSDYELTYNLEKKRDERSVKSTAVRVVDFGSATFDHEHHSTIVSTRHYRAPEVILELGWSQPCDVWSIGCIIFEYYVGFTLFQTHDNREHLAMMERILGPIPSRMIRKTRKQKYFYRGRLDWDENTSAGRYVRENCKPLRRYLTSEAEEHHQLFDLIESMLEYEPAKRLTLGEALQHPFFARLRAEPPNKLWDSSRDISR

[13] = target: Mitogen-activated protein kinase kinase kinase kinase 2 (Homo sapiens, UniProt Q12851);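 note: measured as one member of a kinome-wide kinase panel, with MAP4K2 as the panel entry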
[14] = target: Serine/threonine-protein kinase 17A (Homo sapiens, UniProt Q9UEE5)
Sequence of Serine/threonine-protein kinase 17A (Q9UEE5 whole entry): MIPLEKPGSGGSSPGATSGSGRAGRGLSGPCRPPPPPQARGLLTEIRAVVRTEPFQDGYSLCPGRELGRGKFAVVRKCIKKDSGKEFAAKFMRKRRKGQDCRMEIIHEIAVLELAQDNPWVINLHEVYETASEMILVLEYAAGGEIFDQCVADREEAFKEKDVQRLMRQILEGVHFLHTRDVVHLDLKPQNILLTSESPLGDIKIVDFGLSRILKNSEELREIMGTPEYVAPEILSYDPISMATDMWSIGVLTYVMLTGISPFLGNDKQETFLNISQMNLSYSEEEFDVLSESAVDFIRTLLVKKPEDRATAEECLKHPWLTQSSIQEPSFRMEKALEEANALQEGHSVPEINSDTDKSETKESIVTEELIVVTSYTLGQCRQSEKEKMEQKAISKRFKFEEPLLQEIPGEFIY

Misshapen-like kinase 1 = Misshapen-like kinase 1 (Homo sapiens, UniProt Q8N4C8);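 note: kinome panel screen with MINK as the panel member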
[15] = target: Homeodomain-interacting protein kinase 2 (Homo sapiens, UniProt Q9H2X6);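 note: measured within a kinome-wide kinase profiling panel, HIPK2 being one panel member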
Sequence of Homeodomain-interacting protein kinase 2 (Q9H2X6 whole entry): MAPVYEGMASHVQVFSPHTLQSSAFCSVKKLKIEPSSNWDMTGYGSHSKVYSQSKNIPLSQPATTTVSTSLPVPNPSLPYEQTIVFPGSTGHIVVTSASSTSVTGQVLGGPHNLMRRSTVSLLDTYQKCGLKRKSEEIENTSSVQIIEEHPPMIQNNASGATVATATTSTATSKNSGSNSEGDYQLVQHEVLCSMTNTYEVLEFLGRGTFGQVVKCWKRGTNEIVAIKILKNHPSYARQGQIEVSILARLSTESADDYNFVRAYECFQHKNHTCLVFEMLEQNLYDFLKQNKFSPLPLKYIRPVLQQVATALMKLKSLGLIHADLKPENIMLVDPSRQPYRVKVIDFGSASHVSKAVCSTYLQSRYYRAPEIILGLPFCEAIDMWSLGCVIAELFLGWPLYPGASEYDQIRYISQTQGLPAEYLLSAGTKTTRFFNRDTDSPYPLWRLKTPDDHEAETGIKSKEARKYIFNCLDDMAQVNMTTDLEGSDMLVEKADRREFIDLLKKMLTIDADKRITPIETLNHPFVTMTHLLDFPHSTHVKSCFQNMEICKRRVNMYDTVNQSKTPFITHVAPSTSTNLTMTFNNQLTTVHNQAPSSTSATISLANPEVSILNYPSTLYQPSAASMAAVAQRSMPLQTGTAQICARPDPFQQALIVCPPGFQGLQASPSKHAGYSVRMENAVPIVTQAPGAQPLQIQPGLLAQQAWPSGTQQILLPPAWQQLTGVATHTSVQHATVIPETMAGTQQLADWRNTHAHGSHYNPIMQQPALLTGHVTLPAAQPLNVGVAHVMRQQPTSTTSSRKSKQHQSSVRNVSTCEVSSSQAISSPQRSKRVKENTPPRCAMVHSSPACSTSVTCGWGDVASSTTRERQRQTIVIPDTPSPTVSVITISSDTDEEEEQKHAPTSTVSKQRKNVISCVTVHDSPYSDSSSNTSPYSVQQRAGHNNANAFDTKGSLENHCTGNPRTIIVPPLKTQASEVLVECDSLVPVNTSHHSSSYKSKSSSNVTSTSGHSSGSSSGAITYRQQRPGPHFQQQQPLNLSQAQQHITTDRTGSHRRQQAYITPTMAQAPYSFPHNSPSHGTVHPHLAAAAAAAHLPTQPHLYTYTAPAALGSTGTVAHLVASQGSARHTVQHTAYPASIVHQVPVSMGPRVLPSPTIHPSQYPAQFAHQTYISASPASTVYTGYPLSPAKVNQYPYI

[16] = target: cAMP-dependent protein kinase catalytic subunit alpha (Homo sapiens, UniProt P17612)
[17] = target: Cell division cycle 7-related protein kinase (Homo sapiens, UniProt O00311);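 note: value obtained from a kinome-wide kinase panel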
[18] = target: Cyclin-dependent kinase 7 (Homo sapiens, UniProt P50613);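 note: value comes from a kinome-wide kinase profiling panel in which CDK7 is one member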
[19] = target: Serine/threonine-protein kinase pim-1 (Homo sapiens, UniProt P11309)
[20] = target: Glycogen synthase kinase-3 beta (Homo sapiens, UniProt P49841);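 note: value comes from a broad kinome profiling panel, with GSK3B as the panel member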
Sequence of Glycogen synthase kinase-3 beta (P49841 whole entry): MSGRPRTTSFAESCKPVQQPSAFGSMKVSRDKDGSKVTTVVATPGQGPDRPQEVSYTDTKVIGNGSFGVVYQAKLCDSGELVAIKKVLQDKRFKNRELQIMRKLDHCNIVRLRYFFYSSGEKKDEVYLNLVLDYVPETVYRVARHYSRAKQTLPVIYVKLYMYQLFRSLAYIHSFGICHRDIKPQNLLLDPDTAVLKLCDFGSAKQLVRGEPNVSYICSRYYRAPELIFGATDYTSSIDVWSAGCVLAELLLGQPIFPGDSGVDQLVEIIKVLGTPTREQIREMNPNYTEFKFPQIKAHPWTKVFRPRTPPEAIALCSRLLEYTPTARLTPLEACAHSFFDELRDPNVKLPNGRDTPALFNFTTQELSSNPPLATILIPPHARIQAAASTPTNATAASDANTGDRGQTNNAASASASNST

[21] = target: Interleukin-1 receptor-associated kinase 4 (Homo sapiens, UniProt Q9NWZ3)
[22] = target: Cyclin-dependent kinase 9 (Homo sapiens, UniProt P50750);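 note: value from the CDK9 entry of a kinome-spanning kinase panel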
[23] = target: Sphingosine 1-phosphate receptor 2 (Homo sapiens, UniProt O95136); experiment: Late-stage fluorescence-based dose-response cell-based counterscreen assay to identify agonists of the Sphingosine 1-Phosphate Receptor 3 (S1P3): Sphingosine 1-Phosphate Receptor 2 (S1P2) agonist assay.
Sequence of Sphingosine 1-phosphate receptor 2 (O95136 whole entry): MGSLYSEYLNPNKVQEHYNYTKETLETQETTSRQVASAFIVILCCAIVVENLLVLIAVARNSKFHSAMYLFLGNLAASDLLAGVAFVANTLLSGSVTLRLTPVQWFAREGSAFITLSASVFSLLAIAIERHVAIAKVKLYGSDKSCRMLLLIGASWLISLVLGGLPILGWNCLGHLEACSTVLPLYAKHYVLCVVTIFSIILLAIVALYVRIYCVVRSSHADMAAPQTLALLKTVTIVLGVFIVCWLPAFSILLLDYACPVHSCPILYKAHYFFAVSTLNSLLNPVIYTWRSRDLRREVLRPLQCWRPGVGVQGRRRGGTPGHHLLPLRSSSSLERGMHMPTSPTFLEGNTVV

[24] = target: T2, Sphingosine 1-phosphate receptor 4 (Homo sapiens, UniProt O95977); experiment: Late-stage fluorescence-based dose-response cell-based counterscreen assay to identify agonists of the Sphingosine 1-Phosphate Receptor 3 (S1P3): Sphingosine 1-Phosphate Receptor 4 (S1P4) agonist assay.
T2 sequence (O95977 whole entry): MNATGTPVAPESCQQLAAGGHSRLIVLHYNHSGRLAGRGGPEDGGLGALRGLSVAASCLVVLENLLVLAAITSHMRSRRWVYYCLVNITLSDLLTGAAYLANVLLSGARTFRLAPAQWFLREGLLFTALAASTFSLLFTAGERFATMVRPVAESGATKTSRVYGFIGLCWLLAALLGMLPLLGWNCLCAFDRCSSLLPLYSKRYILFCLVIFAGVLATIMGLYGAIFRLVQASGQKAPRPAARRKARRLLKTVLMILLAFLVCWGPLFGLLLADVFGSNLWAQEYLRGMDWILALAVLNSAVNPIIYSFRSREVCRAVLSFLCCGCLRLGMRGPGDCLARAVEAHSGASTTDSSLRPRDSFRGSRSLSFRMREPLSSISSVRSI

Sequence of Calcium/calmodulin-dependent protein kinase type II subunit beta (Q13554 whole entry): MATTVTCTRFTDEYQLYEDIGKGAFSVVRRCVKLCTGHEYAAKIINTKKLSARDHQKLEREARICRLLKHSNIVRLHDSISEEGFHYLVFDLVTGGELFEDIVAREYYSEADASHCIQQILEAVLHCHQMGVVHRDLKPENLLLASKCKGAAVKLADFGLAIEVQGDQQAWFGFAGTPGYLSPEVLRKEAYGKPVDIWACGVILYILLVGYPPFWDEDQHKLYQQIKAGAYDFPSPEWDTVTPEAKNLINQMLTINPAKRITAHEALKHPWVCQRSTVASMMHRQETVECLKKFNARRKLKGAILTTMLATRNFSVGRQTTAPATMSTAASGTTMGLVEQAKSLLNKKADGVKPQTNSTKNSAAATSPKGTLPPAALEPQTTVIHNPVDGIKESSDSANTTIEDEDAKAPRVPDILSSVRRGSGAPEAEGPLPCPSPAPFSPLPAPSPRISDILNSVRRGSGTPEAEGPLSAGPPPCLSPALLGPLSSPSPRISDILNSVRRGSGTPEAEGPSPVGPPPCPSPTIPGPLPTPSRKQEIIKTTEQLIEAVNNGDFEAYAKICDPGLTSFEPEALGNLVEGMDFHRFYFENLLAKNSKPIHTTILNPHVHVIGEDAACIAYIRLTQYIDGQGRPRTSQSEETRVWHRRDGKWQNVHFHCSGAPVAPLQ

CCNc1nc(C)c(C=CC(C)(C)c2ccc(C(F)(F)F)cc2)c(NCC)n1
active: Ki [1] 2 µM | Ki [2] 1.26 µM | Ki [3] 2 µM | Ki [4] 7.94 µM | Ki [5] 1.58 µM

CCN(CC)C(=O)C(C)N(C#N)c1nc(Cl)nc(N(C)C)n1 (stereo not drawn)
inactive: IC50 (Melanocortin receptor 4) > 64.6 µM | IC50 [6] > 64.6 µM

O=C(Nc1cccc(-c2nn3ccccc3c2-c2ccnc(Nc3ccc4c(c3)CNCC4)n2)c1)c1c(F)cccc1F
active: Ki [7] 0.0126 µM | Ki (Aurora kinase B) 0.00501 µM | Ki [8] 0.02 µM | Ki (Aurora kinase A) 0.2 µM

Nc1ncnc2c1ncn2[C@@H]1O[C@H](CO)[C@@H](O)[C@H]1O [ADENOSINE]
active: IC50 [9] 0.571 µM | EC50 [10] 0.759 µM | IC50 [11] 0.2 µM

Cc1n[nH]c2c1C(c1ccccc1F)C(C#N)=C(N)O2 (stereo not drawn)
active: Ki [12] 7.94 µM | Ki [13] 5.01 µM | Ki [14] 2.51 µM | Ki (Misshapen-like kinase 1) 5.01 µM

CC(C)(CO)CCCNc1cc(-c2c[nH]c3ncccc23)cc(Cl)n1
active: Ki [15] 0.00794 µM | Ki [16] 0.0316 µM | Ki [17] 0.000631 µM | Ki [18] 0.0794 µM | Ki [19] 0.398 µM | Ki [20] 0.0316 µM | Ki [21] 1.58 µM | Ki [22] 0.158 µM

O=C(c1cc(C2CC2)on1)N(C1CCCCC1)C1CCOCC1
inactive: EC50 [23] > 50 µM | EC50 [24] > 50 µM
